For 17 molecules, IC50 and EC50 results are on record in patent US9339503B2, “Tetrahydro-quinazolinone derivatives as TANK and PARP inhibitors” (MERCK PATENT GMBH, priority 2012, dated 2016).

For experiment [1], the target named is T1, GST-tagged Tankyrase-1 (1023-1327 aa) (Homo sapiens, UniProt O95271).
T1 construct: GST-tagged Tankyrase-1 (1023-1327 aa)
Put plainly: Tankyrase 1 autoparsylation assay (HTRF enzyme assay). In kind it is biochemical. The method, then: (§1) The autoparsylation assay was run in two steps: the enzymatic reaction in which GST-tagged Tankyrase-1, resp Tankyrase-2 transferred biotinylated ADP-ribose to itself from biotinylated NAD as co-substrate and the detection reaction where a time resolved FRET between cryptate labelled anti-GST bound to the GST tag of the enzyme and Xlent® labelled-streptavidin bound the biotin-parsylation residue was analysed. The autoparsylation activity was detectable directly via the increase in HTRF signal.
(§2) The autoparsylation assay was performed as 384-well HTRF® (Cisbio, Codolet, France) assay format in Greiner low volume nb 384-well microtiter plates and was used for high throughput screen. 250 nM GST-tagged Tankyrase-1 (1023-1327 aa), respectively about 250 nM GST-tagged Tankyrase-2 (873-1166 aa) and 5 μM bio-NAD (Biolog, Life science Inst., Bremen, Germany) as co-substrate were incubated in a total volume of 5 μl (50 mM HEPES, 4 mM Mg-chloride, 0.05% Pluronic F-68, 1.4 mM DTT, 0.5% DMSO, pH 7.7) in the absence or presence of the test compound (10 dilution concentrations) for 90 min at 30° C. The reaction was stopped by the addition of 1 μl 50 mM EDTA solution. 2 μl of the detection solution (1.6 μM SA-Xlent® (Cisbio, Codolet, France), 7.4 nM Anti-GST-K® (Eu-labelled anti-GST, Cisbio, Codolet, France) in 50 mM HEPES, 800 mM KF, 0.1% BSA, 20 mM EDTA, 0.1% CHAPS, pH 7.0) were added. After 1 h incubation at room temperature the HTRF was measured with an Envision multimode reader (Perkin Elmer LAS Germany GmbH) at excitation wavelength 340 nm (laser mode) and emission wavelengths 615 nm and 665 nm. The ratio of the emission signals was determined. The full value used was the inhibitor-free reaction. The pharmacological zero value used was XAV-939 (Tocris) in a final concentration of 5 μM. The inhibitory values (IC50) were determined using either the program Symyx Assay Explorer® or Condosseo® from GeneData.

The target in experiment [2] is T2, GST-tagged Tankyrase-2 (873-1166 aa) (Homo sapiens, UniProt Q9H2K2).
T2 construct: GST-tagged Tankyrase-2 (873-1166 aa)
T2 sequence (Q9H2K2 873-1166): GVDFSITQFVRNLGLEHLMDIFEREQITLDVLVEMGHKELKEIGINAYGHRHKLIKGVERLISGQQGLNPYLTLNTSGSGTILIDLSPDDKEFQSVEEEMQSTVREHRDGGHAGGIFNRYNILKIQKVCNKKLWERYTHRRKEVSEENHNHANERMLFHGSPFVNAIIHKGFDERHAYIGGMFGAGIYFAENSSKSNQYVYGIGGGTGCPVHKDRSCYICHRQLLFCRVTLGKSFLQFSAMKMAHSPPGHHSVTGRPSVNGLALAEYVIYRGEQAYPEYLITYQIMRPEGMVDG
Put plainly: Tankyrase 2 autoparsylation assay (HTRF enzyme assay). In kind it is biochemical. The method, then:
as §1, §2
A general note: TR-FRET usually uses a lanthanide donor and a delayed reading to cut background.

In another experiment the test system is tankyrase 1/2. Put plainly: Measurement of cellular inhibition of tankyrase (Axin2 level, Luminex based assay, DLD1 cells). The conditions noted are these: 24 hours, increase of Axin2 level, read-out: EC50 tankyrase 1/2 (cell assay). How it is done:
Measurement of Cellular Inhibition of Tankyrase
Since Tankyrases have been described to modulate cellular level of Axin2 (Huang et al., 2009; Nature) the increase of Axin2 level is used as read-out for determination of cellular inhibition of Tankyrases in a Luminex based assay.
Cells of the colon carcinoma cell line DLD1 are plated in 96 well plates with 1.5×10^4 cells per well. Next day, cells are treated with a serial-dilution of test compound in seven steps as triplicates with a final DMSO concentration of 0.3%. After 24 hours, cells are lysed in lysis buffer (20 mM Tris/HCl pH 8.0, 150 mM NaCl, 1% NP40, 10% Glycerol) and lysates are cleared by centrifugation through a 96 well filter plate (0.65 μm). Axin2 protein is isolated from cell lysates by incubation with a monoclonal anti-Axin2 antibody (R&D Systems #MAB6078) that is bound to fluorescent carboxybeads. Then, bound Axin2 is specifically detected with a polyclonal anti-Axin2 antibody (Cell Signaling #2151) and an appropriate PE-fluorescent secondary antibody. The amount of isolated Axin2 protein is determined in a Luminex^200 machine (Luminex Corporation) according to the manufacturer's instruction by counting 100 events per well. […] For analysis, the obtained data were normalized against the untreated solvent control and fitted for determination of the EC50 values using the Assay Explorer software (Accelrys).

For experiment [3], the target named is T3, GST-tagged Tnks-2 (873-1166 aa) (Homo sapiens, UniProt Q9H2K2).
T3 construct: GST-tagged Tnks-2 (873-1166 aa, prepared in-house); made in house
T3 sequence (Q9H2K2 873-1166): as above
Put plainly: TNKS 2 activity ELISA (autoparsylation assay). In kind it is biochemical. As to conditions: read-out: IC50 tankyrase 2 (ELISA assay). The method, then:
(§3) Biochemical Activity Testing of TNKS 1 and 2: Activity ELISA (Autoparsylation Assay)
(§4) For analysis of autoparsylation activity of TNKS 1 and 2 an activity ELISA was performed: In the first step GST tagged TNKS was captured on a Glutathione coated plate. Then the activity assay with biotinylated NAD was performed in the absence/presence of the compounds. During the enzymatic reaction GST tagged TNKS transferred biotinylated ADP-ribose to itself from biotinylated NAD as co-substrate. For the detection streptavidin-HRP conjugate was added that bound to the biotinylated TNKS and was thereby captured to the plates. The amount of biotinylated resp autoparsylated TNKS was detected with a luminescence substrate for HRP. The level of the luminescence signal correlated directly with the amount of autoparsylated TNKS and therefore with activity of TNKS.
(§5) The activity ELISA was performed in 384 well Glutathione coated microtiter plates (Express capture Glutathione coated plate, Biocat, Heidelberg, Germany). The plates were pre-equilibrated with PBS. Then the plates were incubated with 50 μl 20 ng/well GST-tagged Tnks-1 (1023-1327 aa, prepared in-house), respectively GST-tagged Tnks-2 (873-1166 aa, prepared in-house) in assay buffer (50 mM HEPES, 4 mM Mg-chloride, 0.05% Pluronic F-68, 2 mM DTT, pH 7.7) overnight at 4° C. The plates were washed 3 times with PBS-Tween-20. The wells were blocked by incubation at room temperature for 20 minutes with 50 μl blocking buffer (PBS, 0.05% Tween-20, 0.5% BSA). Afterwards the plates were washed 3 times with PBS-Tween-20. The enzymatic reaction was performed in 50 μl reaction solution (50 mM HEPES, 4 mM Mg-chloride, 0.05% Pluronic F-68, 1.4 mM DTT, 0.5% DMSO, pH 7.7) with 10 μM bio-NAD (Biolog, Life science Inst., Bremen, Germany) as co-substrate in the absence or presence of the test compound (10 dilution concentrations) for 1 hour at 30° C. The reaction was stopped by 3 times washing with PBS-Tween-20. For the detection 50 μl of 20 ng/μl Streptavidin, HRP conjugate (MoBiTec, Göttingen, Germany) in PBS/0.05% Tween-20/0.01% BSA were added and the plates were incubated for 30 minutes at room temperature. After three times washing with PBS-Tween-20 50 μl of SuperSignal ELISA Femto Maximum sensitivity substrate solution (ThermoFisherScientific (Pierce), Bonn, Germany) were added. Following a 1 minute incubation at room temperature luminescence signals were measured with an Envision multimode reader (Perkin Elmer LAS Germany GmbH) at 700 nm. The full value used was the inhibitor-free reaction. The pharmacological zero value used was XAV-939 (Tocris) in a final concentration of 5 μM. The inhibitory values (IC50) were determined using either the program Symyx Assay Explorer® or Condosseo® from GeneData.
Background: An ELISA detects its analyte on a solid surface through an enzyme-linked reagent.

Experiment [4] concerns the target T4, GST-tagged Tnks-1 (1023-1327 aa) (Homo sapiens, UniProt O95271).
T4 construct: GST-tagged Tnks-1 (1023-1327 aa, prepared in-house); made in house
Put plainly: TNKS 1 activity ELISA (autoparsylation assay). In kind it is biochemical. The conditions noted are these: read-out: IC50 tankyrase 1 (ELISA assay). The method, then:
as §3, §4, §5

T1 sequence (O95271 1023-1327): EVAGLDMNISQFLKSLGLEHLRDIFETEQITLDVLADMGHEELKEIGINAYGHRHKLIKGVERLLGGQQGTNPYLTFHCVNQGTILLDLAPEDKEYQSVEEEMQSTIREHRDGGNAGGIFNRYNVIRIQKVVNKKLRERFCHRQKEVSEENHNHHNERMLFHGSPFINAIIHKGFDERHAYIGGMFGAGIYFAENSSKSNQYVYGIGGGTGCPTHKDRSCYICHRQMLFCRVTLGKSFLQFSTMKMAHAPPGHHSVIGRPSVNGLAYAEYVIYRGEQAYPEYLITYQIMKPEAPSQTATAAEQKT
T4 sequence (O95271 1023-1327): as above

Consider `COc1ccc(N2CCN(c3nc4c(c(=O)[nH]3)CCCC4)CC2=O)cc1` [Compound A14, 2-[4-(4-Methoxyphenyl)-3-oxopiperazin-1-yl]-5,6,7,8-tetrahydro-3H-quinazolin-4-one], for which the IC50 in experiment [1] and in experiment [2] was 3 to 50 µM throughout. The EC50 in the experiment on tankyrase 1/2 is 3000 to 50000 nM.

With `O=C(N1CCCCC1)N1CCN(c2nc3c(c(=O)[nH]2)CCCC3)CC1` [Compound A15, 2-[4-(Piperidine-1-carbonyl)piperazin-1-yl]-5,6,7,8-tetrahydro-3H-quinazolin-4-one], the IC50 in experiment [1] and in experiment [2] was 3 to 50 µM each time. Further, in the experiment with tankyrase 1/2, the EC50 fell in the range of 3000 to 50000 nM.

Turning to `O=c1[nH]c(N2CCN(c3ccccc3OC(F)(F)F)CC2)nc2c1CCCC2` [Compound A43, 2-[4-[2-(trifluoromethoxy)phenyl]piperazin-1-yl]-5,6,7,8-tetrahydro-3H-quinazolin-4-one], the IC50 (usually the concentration that gives 50% inhibition) lay within 0.3 to 3 µM in experiment [1] and 3 to 50 µM in experiment [2].

On to `O=c1[nH]c(N2CCN(c3cccc(O)n3)CC2)nc2c1CCCC2` [Compound A16, 2-[4-(6-Hydroxypyridin-2-yl)piperazin-1-yl]-5,6,7,8-tetrahydro-3H-quinazolin-4-one], for which the half-maximal inhibitory concentration (IC50) in experiment [1] and in experiment [2] was 3 to 50 µM throughout. In addition, the EC50 in the experiment with tankyrase 1/2 was 3000 to 50000 nM.

`O=c1[nH]c(N2CCN(c3ccc(C(F)(F)F)cc3)CC2)nc2c1CCCC2` [Compound A50, 2-[4-(4-trifluoromethylphenyl)piperazin-1-yl]-5,6,7,8-tetrahydro-3H-quinazolin-4-one]: the IC50 in experiment [1] and in experiment [2] was 0.3 to 3 µM throughout.

For the molecule `CCOc1ccc(N2CCN(c3nc4c(c(=O)[nH]3)CCCC4)CC2)cc1` [Compound A48, 2-[4-(4-ethoxyphenyl)piperazin-1-yl]-5,6,7,8-tetrahydro-3H-quinazolin-4-one], the IC50 in experiment [1] is 0.3 to 3 µM; in experiment [2], 0.3 to 3 µM; in experiment [3], below 300 nM; in experiment [4] it was below 300 nM.

On to `O=C(CN1CCN(c2nc3c(c(=O)[nH]2)CCCC3)CC1)Nc1ccccn1` [Compound A18, N-pyridin-2-yl-2-[4-(4-oxo-3,4,5,6,7,8-hexahydroquinazolin-2-yl)piperazin-1-yl]-acetamide], for which the 50% inhibitory concentration (IC50) in experiment [1] and in experiment [2] was 0.3 to 3 µM each time. Further, the EC50 in the experiment with tankyrase 1/2 was in the range of 3000 to 50000 nM.

Take `O=c1[nH]c(N2CCC(O)(c3ccccc3)CC2)nc2c1CCCC2` [Compound A35, 2-(4-hydroxy-4-phenyl-1-piperidyl)-5,6,7,8-tetrahydro-3H-quinazolin-4-one]: the IC50 in experiment [1] and in experiment [2] was 0.3 to 3 µM in each case. Besides, the EC50 with tankyrase 1/2 lay within 300 to 3000 nM.

`N#CCc1ccc(N2CCN(c3nc4c(c(=O)[nH]3)CCCC4)CC2)cc1` [Compound A46, 2-[4-[4-(4-oxo-5,6,7,8-tetrahydro-3H-quinazolin-2-yl)piperazin-1-yl]phenyl] acetonitrile]: the half-maximal inhibitory concentration (IC50) in experiment [1] and in experiment [2] was 0.3 to 3 µM each time.

With `COc1ccc(C2(O)CCN(c3nc4c(c(=O)[nH]3)CCCC4)CC2)cc1` [Compound A53, 2-[4-hydroxy-4-(4-methoxy-phenyl)-piperidin-1-yl]-5,6,7,8-tetrahydro-3H-quinazolin-4-one], the 50% inhibitory concentration (IC50) in experiment [1] and in experiment [2] was 0.3 to 3 µM throughout. The EC50 with tankyrase 1/2 lay within 300 to 3000 nM.

On to `O=c1[nH]c(N2CCN(c3cccnc3)CC2)nc2c1CCCC2` [Compound A32, 2-[4-(3-pyridyl)piperazin-1-yl]-5,6,7,8-tetrahydro-3H-quinazolin-4-one], for which the IC50 in experiment [1] and in experiment [2] was 0.3 to 3 µM throughout.

Take `CC(C)(C)N1CCN(c2nc3c(c(=O)[nH]2)CCCC3)CC1` [Compound A13, 2-(4-tert-Butylpiperazin-1-yl)-5,6,7,8-tetrahydro-3H-quinazolin-4-one]: the half-maximal inhibitory concentration (IC50) in experiment [1] and in experiment [2] was 0.3 to 3 µM each time. For the same molecule, the EC50 in the experiment on tankyrase 1/2 lay within 3000 to 50000 nM.

For `CC(C)Oc1ccccc1N1CCN(c2nc3c(c(=O)[nH]2)CCCC3)CC1` [Compound A42, 2-[4-(2-isopropoxyphenyl)piperazin-1-yl]-5,6,7,8-tetrahydro-3H-quinazolin-4-one], the IC50 in experiment [1] and in experiment [2] was 0.3 to 3 µM in each case.

For the molecule `O=c1[nH]c(N2CCN(CCO)CC2)nc2c1CCCC2` [Compound A25, 2-[4-(2-hydroxyethyl)piperazin-1-yl]-5,6,7,8-tetrahydro-3H-quinazolin-4-one], the IC50 in experiment [1] and in experiment [2] was 3 to 50 µM in each case.

Consider `O=C(c1ccccc1)N1CCN(c2nc3c(c(=O)[nH]2)CCCC3)CC1` [Compound A17, 2-(4-Benzoylpiperazin-1-yl)-5,6,7,8-tetrahydro-3H-quinazolin-4-one], for which the concentration for half-maximal inhibition (IC50) in experiment [1] and in experiment [2] was 3 to 50 µM each time.

Take `O=C(N1CCOCC1)N1CCN(c2nc3c(c(=O)[nH]2)CCCC3)CC1` [Compound A20, 2-[4-(Morpholine-4-carbonyl)piperazin-1-yl]-5,6,7,8-tetrahydro-3H-quinazolin-4-one]: the IC50 in experiment [1] and in experiment [2] was 3 to 50 µM each time. Further, in the experiment on tankyrase 1/2, the EC50 fell in the range of 3000 to 50000 nM.

Turning to `O=c1[nH]c(N2CCN(CCc3ccccn3)CC2)nc2c1CCCC2` [Compound A26, 2-[4-[2-(2-pyridyl)ethyl]piperazin-1-yl]-5,6,7,8-tetrahydro-3H-quinazolin-4-one], the 50% inhibitory concentration (IC50) in experiment [1] and in experiment [2] was 0.3 to 3 µM each time.
